The source made the active and inactive calls. How the calls were made is not given here.
Tested on: HT1080 cells viability, ATPLite luminescence, overnight
Test: HT1080 parental cell cytotoxicity, dose response, cytotoxicity control for MT1-MMP activation inhibitor project, ATPLite luminescence, set 1 (AID 652252)

Question: With `Cc1ccccc1C1=C/C(=C(\SS/C(C(=O)c2ccc(OCC(=O)O)c(Cl)c2Cl)=C2\C=C(c3ccccc3C)SS2)C(=O)c2ccc(OCC(=O)O)c(Cl)c2Cl)SS1` as the molecule, how does the IC50 read?
Answer: The IC50 was 51.8 µM (inactive).

Question: Which IC50 does the source give for `CN1C(=O)/C(=C\c2cc(N=Nc3ccccc3)ccc2O)SC1=S` here?
Answer: The IC50 was > 80 µM (inactive).

Question: How did the IC50 turn out when `O=C1c2ccccc2C(=O)c2c(O)c(O)cc(O)c21` was run?
Answer: Its IC50 is > 80 µM (inactive).

Question: `C[N+]1=C(/C=C/Nc2ccccc2)C(C)(C)c2ccccc21` was tested. Which IC50 did it give?
Answer: The IC50 was 16.9 µM.

Question: How did the IC50 turn out when `O=C1c2cccc(NCCCNCCO)c2C(=O)c2cccc(NCCCNCCO)c21` was run?
Answer: Its IC50 is > 80 µM (inactive).

Question: For `CCOc1ccc2nc(N=Nc3c(O)[nH]c(=S)[nH]c3=O)sc2c1`, which IC50 is on record?
Answer: Its IC50 is 38.1 µM (inactive).

Question: How did the IC50 turn out when `O=C(NNc1c2ccccc2nc2ccccc12)c1ccc(Cl)cc1` was run?
Answer: The IC50 was > 40 µM (inactive).

Question: With `CC1CC(C)CN(C(=O)c2ccc3c(c2NCCO)C(=O)c2ccccc2C3=O)C1` (configuration not stated) as the molecule, how does the IC50 read?
Answer: Its IC50 is > 80 µM (inactive).

Question: Which IC50 does the source give for `CNc1ccccc1C(C)(C)c1cc(-c2cccc(Br)c2)no1` here?
Answer: The IC50 was > 80 µM (inactive).

Question: With `CC(=O)Oc1ccc2oc(/C=C/N(C)C)c([N+](=O)[O-])c2c1` as the molecule, how does the IC50 read?
Answer: The IC50 was > 80 µM (inactive).

Question: Which IC50 does the source give for `CCN(CC)c1ccc(C(=C2C=CC(=[N+](CC)CC)C=C2)c2ccc(N(CC)CC)cc2)cc1` here?
Answer: Its IC50 is > 80 µM (inactive).

Question: `N#CC(C#N)=NNc1ccc([N+](=O)[O-])cc1` was tested. Which IC50 did it give?
Answer: Its IC50 is > 80 µM (inactive).

Question: How did the IC50 turn out when `CCCN1C(=O)/C(=C2/C=Cc3ccccc3N2CC)SC1=S` was run?
Answer: The IC50 was 64.9 µM (inactive).

Question: Which IC50 does the source give for `COc1ccc(C)cc1N=Nc1ccc(O)c2ncccc12` here?
Answer: The IC50 was > 80 µM (inactive).

Question: For `CNc1ccc2nc3ccccc3[n+](C)c2c1`, which IC50 is on record?
Answer: The IC50 was 11.4 µM.

Question: How did the IC50 turn out when `COc1ccc(C)cc1Nc1nc(-c2c(C)[nH]c3ccccc23)cs1` was run?
Answer: Its IC50 is > 80 µM (inactive).

Question: For `CN1C(=O)/C(=C2/C=Cc3ccccc3N2CCCS(=O)(=O)O)SC1=S`, which IC50 is on record?
Answer: Its IC50 is > 80 µM (inactive).

Question: How did the IC50 turn out when `C/C(=C/c1oc2ccc(O)cc2c1[N+](=O)[O-])N(C)C` was run?
Answer: The IC50 was > 80 µM (inactive).

Question: `Nc1ccc(NC(=O)c2ccccc2)c2c1C(=O)c1ccccc1C2=O` was tested. Which IC50 did it give?
Answer: The IC50 was > 80 µM (inactive).

Question: For `Cc1c(C(=O)OCC(=O)NCC2CCCO2)oc2ccccc12` (configuration not stated), which IC50 is on record?
Answer: The IC50 was > 40 µM (inactive).

Question: With `Nc1nc(-c2ccc(Cl)cc2)c(N=Nc2ccc(S(=O)(=O)N3CCOCC3)cc2)s1` as the molecule, how does the IC50 read?
Answer: Its IC50 is 30.3 µM (inactive).

Question: For `COc1cc(N(C)C)ccc1C=c1c2ccccc2n2c1cc(-c1ccccc1)[n+]2C`, which IC50 is on record?
Answer: The IC50 was 1.43 µM.

Question: For `Cc1cc(N(CCO)CCO)ccc1N=Nc1cc(F)ccc1F`, which IC50 is on record?
Answer: Its IC50 is > 80 µM (inactive).

Question: `CCCN1/C(=C2/SC(=S)N(CC)C2=O)C=Cc2ccccc21` was tested. Which IC50 did it give?
Answer: Its IC50 is > 80 µM (inactive).

Question: With `COc1ccc(-c2oc3ccc(-c4ccc(OC)nc4)cc3c2C#CC2(O)CCCCC2)cc1` as the molecule, how does the IC50 read?
Answer: Its IC50 is > 80 µM (inactive).

Question: Which IC50 does the source give for `CN=C1C=C/C(=N/N=c2\ccn(O)cc2C)C=C1C` here?
Answer: The IC50 was > 80 µM (inactive).

Question: For `Nc1nc(-c2ccccc2)c(N=Nc2cccc3ccccc23)s1`, which IC50 is on record?
Answer: The IC50 was > 80 µM (inactive).

Question: `CC1(C)CCCN(C(=O)c2ccc3c(c2NCCO)C(=O)c2ccccc2C3=O)C1` was tested. Which IC50 did it give?
Answer: The IC50 was > 80 µM (inactive).

Question: How did the IC50 turn out when `CCOC(=O)C1=C(C)N=c2s/c(=C\c3ccc(OC(C)=O)c(OCC)c3)c(=O)n2C1/C=C/c1ccccc1` (configuration not stated) was run?
Answer: The IC50 was 3.54 µM.

Question: `CCN(CC)c1ccc(/C=C2\C(=O)N(c3nnc(C)c(=O)[nH]3)N=C2C)cc1` was tested. Which IC50 did it give?
Answer: The IC50 was > 80 µM (inactive).

Question: How did the IC50 turn out when `CN1C2=CC=CC=CC2=[N+](C)C12C=CC(=[N+]([O-])[O-])C=C2[N+](=O)[O-]` (configuration not stated) was run?
Answer: The IC50 was > 80 µM (inactive).

Question: Which IC50 does the source give for `CC1=NN(c2ccccc2)C(=O)C1N=Nc1ccc(N)cc1` (configuration not stated) here?
Answer: Its IC50 is > 80 µM (inactive).

Question: How did the IC50 turn out when `CNc1c(C(=O)O)ccc2c1C(=O)c1ccccc1C2=O` was run?
Answer: Its IC50 is > 80 µM (inactive).

Question: How did the IC50 turn out when `CCn1c(=O)c(=O)[nH]c2cc(C(=O)NC3CCCc4ccccc43)ccc21` (configuration not stated) was run?
Answer: The IC50 was > 80 µM (inactive).

Question: `CN(C)c1ccc(C=c2c3ccccc3n3c2c2c([n+]3C)CCCC2)cc1` was tested. Which IC50 did it give?
Answer: The IC50 was > 80 µM (inactive).

Question: For `O=Nc1c(-c2c(O)[nH]c3cc(Br)ccc23)[nH]c2ccccc12`, which IC50 is on record?
Answer: The IC50 was 66.1 µM (inactive).

Question: How did the IC50 turn out when `O=S(=O)(O)c1cc(Cl)cc(N=Nc2ccc(O)cc2O)c1O` was run?
Answer: Its IC50 is 1.42 µM.

Question: `CC[n+]1c(/C=C/N(C)c2ccccc2)sc2ccc(Cl)cc21` was tested. Which IC50 did it give?
Answer: Its IC50 is > 80 µM (inactive).

Question: `CNc1ccccc1C(C)(C)c1cc(-c2cccc(OC)c2)no1` was tested. Which IC50 did it give?
Answer: The IC50 was > 80 µM (inactive).

Question: Which IC50 does the source give for `CC1=NN(c2ccccc2)C(=O)/C1=C/C=C/c1ccc(N(C)C)cc1` here?
Answer: Its IC50 is > 80 µM (inactive).

Question: With `CC1=NN(c2ccccc2)C(=O)/C1=C/C=C/C=C/N(C)C` as the molecule, how does the IC50 read?
Answer: The IC50 was 10.2 µM.

Question: With `Cc1cccc[n+]1CC(=O)/C=C1\N(C)c2ccccc2C1(C)C` as the molecule, how does the IC50 read?
Answer: The IC50 was 70.6 µM (inactive).

Question: For `Cc1ccc(S(=O)(=O)/N=C2\C=C(NS(=O)(=O)c3ccccc3)C(=O)c3ccccc32)c(C)c1`, which IC50 is on record?
Answer: Its IC50 is > 80 µM (inactive).

Question: With `COc1ccc(Nc2ccccc2N)cc1` as the molecule, how does the IC50 read?
Answer: Its IC50 is 2.38 µM.

Question: How did the IC50 turn out when `COc1ccccc1C(=O)NC(=S)/C=C1/N(C)c2ccccc2C1(C)C` was run?
Answer: The IC50 was > 80 µM (inactive).

Question: For `O=C(NNc1c2ccccc2nc2ccccc12)c1cc2ccccc2cc1O`, which IC50 is on record?
Answer: The IC50 was > 80 µM (inactive).

Question: How did the IC50 turn out when `CC1=C/C(=C(/c2cc(C)c(O)c(Br)c2)c2ccccc2S(=O)(=O)O)C=C(Br)C1=O` was run?
Answer: Its IC50 is > 80 µM (inactive).
